Key:
[1] = target: T1, hCBS-FL wild type (293T-CBS WT) (Homo sapiens, UniProt P35520); assay: H2S in HEK293T cells stably expressing hCBS WT (AzMC probe); format: cell-based; settings: 8 h
T1 construct: human CBS or hCSE full-length (CBS-FL or CSE) was subcloned into pGEX-KG, pcDNA3 or pCDH vector; expressed in transfected cells
T1 sequence (P35520 1-551): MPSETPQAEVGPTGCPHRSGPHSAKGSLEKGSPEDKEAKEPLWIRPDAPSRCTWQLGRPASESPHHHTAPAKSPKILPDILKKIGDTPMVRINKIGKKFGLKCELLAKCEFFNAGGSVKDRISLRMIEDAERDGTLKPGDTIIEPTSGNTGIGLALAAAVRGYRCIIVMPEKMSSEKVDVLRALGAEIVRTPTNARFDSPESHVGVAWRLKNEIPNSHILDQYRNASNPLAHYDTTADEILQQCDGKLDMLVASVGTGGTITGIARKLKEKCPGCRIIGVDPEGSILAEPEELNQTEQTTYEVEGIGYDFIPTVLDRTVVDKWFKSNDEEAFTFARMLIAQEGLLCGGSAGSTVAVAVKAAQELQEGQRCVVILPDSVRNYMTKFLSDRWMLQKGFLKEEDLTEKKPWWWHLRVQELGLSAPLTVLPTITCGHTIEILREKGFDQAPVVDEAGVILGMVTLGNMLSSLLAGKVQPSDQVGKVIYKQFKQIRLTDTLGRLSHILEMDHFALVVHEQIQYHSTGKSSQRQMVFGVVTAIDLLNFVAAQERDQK
Procedure: HEK293T cells were transiently transfected with empty vector (EV, i and ii), hCBS-FL (iii and iv) or hCSE (v and vi) plasmids, followed by incubation with DMSO (i–iii and v) or 10 μM CH004 (iv and vi) for 8 h before staining with 50 μM AzMC, a H2S-specific probe (“Materials and Methods” section). For larger fluorescent and bright-field images, please see Supplementary Figure 4. The expression levels of hCBS or hCSE in HEK293T cells after transient transfections were determined by western blotting using an anti-CBS antibody (3E1, 1:2000; Abnova) or anti-CSE antibody (1:500, GeneTex). The densities of protein bands for hCBS or hCSE in the blots were quantified with the ImageJ software (National Institutes of Health, Bethesda, MD, USA) and expressed as ratios of respective control (EV group). All immunoblots are representative of at least two independent experiments using GAPDH as the loading control. The fluorescent images of the H2S (blue) were accordingly quantified (“Materials and Methods” section) with ImageJ. […] The DMSO groups of the controls (CTR), which are expressing of hCBS or hCSE, were normalized to 100% and the levels of H2S in CH004-treated or EV group are shown as relative percentages. c, d CH004 dose-dependently suppresses the activity of hCBS WT without affecting the activity of CH004-insensitive mutant. HEK293T cells stably expressing EV (i and ii), hCBS-FL wild type (293T-CBS WT; iii–v) or CBS-FL mutant (293T-CBS Q222A, vi–viii) were treated with DMSO (i–iii and vi), 5 μM CH004 (iv, vii) or 10 μM CH004 (v, viii) for 8 h before staining with the AzMC. For larger fluorescent and bright-field images, please see Supplementary Figures 5–6. […] The DMSO groups of the controls (CTR), which are expressing of hCBS-FL wt or Q222A mutant, were normalized to 100% and the levels of H2S in CH004-treated or EV group are shown as relative percentages. A representative fluorescence image from three independent experiments is shown. Means ± SDS (n = 3). Statistical analyses were performed on the raw data for each group by one-way (b) or two-way (d) ANOVA with Bonferroni post-tests. ***p < 0.001. Bars, 50 μm
H2S levels in living cells were detected using a H2S-specific fluorescent probe according to a protocol described previously[31],[55]. To measure H2S in transiently transfected HEK293T cells, the cells were seeded on poly-D-Lys-coated coverslips (Thermo Scientific, Waltham, MA, USA) in 12-well plates at a density of ~ 1 × 10^5 cells per well, and hCBS or hCSE plasmids were transiently transfected by X-tremeGENE HP DNA Transfection Reagent according to the manufacturer’s protocol (Roche, Basel, Switzerland). […] After incubation with 50 μM AzMC at 37 °C for 30 min, the cells were washed 4 times with PBS, and the fluorescent images were recorded with excitation by 405 nm laser by using a A1Si (Nikon) confocal microscope. The intensity of the blue fluorescent signals, indicating the amount of H2S, was quantified by ImageJ software (NIH, Bethesda, ML). The H2S signal was then corrected for the background signal detected in HEK293T cells transiently or stably expressing of empty vector (HEK293T-EV) and normalized by the corresponding cell-occupying area and compared with the control (DMSO group, 100%). Similarly, the H2S signal in HepG2 cells was quantified by AzMC staining, corrected for the background signal outside the cells, normalized by the cell area and expressed as percentages of DMSO control (100%). […]

[2] = target: T2, endogenous hCBS in HepG2 cells (Homo sapiens, UniProt P35520); assay: endogenous H2S in HepG2 cells (AzMC probe); format: cell-based; settings: 8 h, HepG2
T2 construct: effects of CH004 on the activity of endogenous CBS by incubating with HepG2; endogenous in cells; host or cells: HepG2
T2 sequence (P35520 1-551): T1 sequence (P35520 1-551)
Procedure: Fig. 3 The effect of CH004 on the activity of endogenous hCBS in cells. a CH004 dose-dependently elevates the levels of Hcys in HepG2 and HEK293T cells. HepG2 cells or HEK293T cells were incubated with indicated CH004 or DMSO (control) for 12 h. The amount of total Hcys in cells was measured by ELISA using Axis® Homocysteine EIA kit (IBL, AX51301) (“Materials and Methods” section). […] HepG2 cells were treated with indicated DMSO, CH004 or HA for 8 h before the staining with AzMC probe. The amount of the H2S (blue) was quantified and is shown in (c). Bars, 50 μm. Control (CTR), DMSO group (100%). A representative fluorescence image from three independent experiments is shown. Means ± SDS (n = 3). d CH004 elevates Hcys in the peripheral blood of rats. The total Hcys of the blood samples collected from the anesthetized rats at the 75 min time point (Materials and Methods) were quantified by ELISA (see above). Means ± SDS (n = 6).
H2S levels in living cells were detected using a H2S-specific fluorescent probe according to a protocol described previously[31],[55]. To measure H2S in transiently transfected HEK293T cells, the cells were seeded on poly-D-Lys-coated coverslips (Thermo Scientific, Waltham, MA, USA) in 12-well plates at a density of ~ 1 × 10^5 cells per well, and hCBS or hCSE plasmids were transiently transfected by X-tremeGENE HP DNA Transfection Reagent according to the manufacturer’s protocol (Roche, Basel, Switzerland). After 24 h, the transfected cells were treated with DMSO or inhibitors for another 8 h, followed by staining with 7-azide-4-methylcoumarin (AzMC; Sigma-Aldrich). Similarly, HEK293T cells stably expressing CBS WT, Q222A mutant or EV were seeded on poly-D-Lys-coated coverslips in 12-well plates for one day before treatment with DMSO or inhibitors for 8 h. After incubation with 50 μM AzMC at 37 °C for 30 min, the cells were washed 4 times with PBS, and the fluorescent images were recorded with excitation by 405 nm laser by using a A1Si (Nikon) confocal microscope. The intensity of the blue fluorescent signals, indicating the amount of H2S, was quantified by ImageJ software (NIH, Bethesda, ML). The H2S signal was then corrected for the background signal detected in HEK293T cells transiently or stably expressing of empty vector (HEK293T-EV) and normalized by the corresponding cell-occupying area and compared with the control (DMSO group, 100%). Similarly, the H2S signal in HepG2 cells was quantified by AzMC staining, corrected for the background signal outside the cells, normalized by the cell area and expressed as percentages of DMSO control (100%).
To elucidate the subcellular localization of H2S, HepG2 cells were seeded on poly-D-Lys-coated coverslips in 12-well plates. After treatment with DMSO or inhibitors for 8 h, cells were sequentially incubated with 200 nM Mito-Tracker® Green and 50 μM AzMC for 30 min at 37 °C in PBS, and then fluorescent images were taken using a confocal microscope.
Figure S9. The effect of AOAA on the level of endogenous H2S in HepG2 cells. […] HepG2 cells were incubated with 0 (DMSO control), 1, 5 or 10 mM AOAA for 8 h before staining with 50 μM AzMC. Upper panels, the overlaid images; middle panels, the corresponding fluorescent images (blue, H2S); the lower panels, the bright-field images. Bars: 50 μm. (B) Quantification of the mean fluorescent density of H2S (blue). The intensity of H2S was accordingly quantified and normalized by correcting for the background signal outside cells. Data was expressed as percentages of the control (DMSO group, 100%). Means ± SDs (n=3). One-way ANOVA with Bonferroni post-tests was used for the analysis. *, p< 0.05; ***, p< 0.001; n.s. no significance. The images are one representative from three independent experiments.

[3] = system: H22 mouse liver tumor cells in ICR mice; settings: 20 mg/kg/day i.v.
Procedure: Fig. 7 CH004 suppresses tumor growth in vivo. a–c CH004 reduces the growth rate of tumors in liver tumor xenograft mice model. Mice bearing liver tumor xenografts were treated with CH004 (10 mg/kg/d), cyclophophamide (CTX, 20 mg/kg/d) or PBS (Vehicle) for 21 days. The tumor volumes were measured every two days during day 6 to day 22 and the data was presented in a (n = 8). […] Mice body weight was measured along with the measurement of tumor volume (n = 8). Means ± SDS. Statistical analyses were performed on the raw data by one-way (c) or two-way ANOVA (a) with Bonferroni post-tests. The significance of the CH004-treated group compared to Vehicle was indicated with $ (a), whereas the comparison of the CTX group to Vehicle was with # (a). $, # or ***p < 0.001
The in vivo effect of CH004 on tumor growth was evaluated in a xenograft mice model of liver cancer. The experiment was independently performed by Jiangsu KeyGEN BioTECH Co. LTD (Jiangsu, China) and followed the standard procedures that were established and approved by the local Animal Care and Use Committee. Briefly, H22 mouse liver tumor cells were intraperitoneal injected into female ICR mice (SLAC Laboratory Animal Co. Ltd, Shanghai, China). 8 days later, mice with distended abdomen were killed, and the ascites was collected, washed and resuspended with PBS. 0.1 ml cell suspension with a density of 1 × 10^7/ml was subcutaneously injected into the right dorsum of ICR female mice (~20 g). The mice bearing H22 tumor cells were then randomized into groups (n = 8) on the following day after the implantation. Then, the mice were injected via a tail vein (i.v.) with PBS, CH004 (10 mg/kg) or cyclophosphamide (CTX, a known anticancer drug; 20 mg/kg) once per day and for 21 days. Tumor sizes were measured every 2 days starting from the day 6 using a caliper, and tumor volume was calculated using the formula V = length × width^2 × π / 6. The body weights of mice were recorded under the same conditions. The mice were sacrificed on day 22, and the tumors were taken out and weighted.

| Compound | effect on production of H2S ([1]; 1 mM, HEK293T stably expressing hCBS) | decrease in cellular H2S ([1]; 10 mM, HEK293T stably expressing hCBS) | H2S production ([1]; 1, 5 or 10 mM, 293T-CBS WT) | effect on production of H2S ([2]; 1 mM) | decrease in cellular H2S ([2]; 10 mM) | production of endogenous H2S ([2]; 1, 5 or 10 mM) | reduction of tumor volume or weight ([3]; 21-day treatment) | effect on total body weight ([3]; 21 days) |
| --- | --- | --- | --- | --- | --- | --- | --- | --- |
| NOCC(=O)O [AOAA, aminooxyacetic acid, reference compound] | cannot suppress | ≤ 30% | weakly inhibits | cannot suppress | ≤ 30% | impotently decreases |  |  |
| O=P1(N(CCCl)CCCl)NCCCO1 (centres unmarked) [CTX, cyclophosphamide, reference compound] |  |  |  |  |  |  | more than half | did not substantially affect |

Reference: paper PMC6158189, “A pharmacological probe identifies cystathionine β-synthase as a new negative regulator for ferroptosis” (Cell Death & Disease, 2018)
